Results on 7 molecules are retold here after patent publication US20260097045A1, “ANTIMICROBIAL COMBINATIONS” (Helperby Therapeutics Limited, priority 2022, published 2026).

Residues, ends and D or L forms follow the SMILES beside them. Where only a bound is given, the exact number is not on record here.

Format in all cases: cell-based
The subject of one assay is P. aeruginosa. Kind of assay: chequerboard assay (percentage of positive control, MIC, FIC) against P. aeruginosa. The conditions noted are these: for MIC: Pseudomonas aeruginosa, read-out: MIC Monotherapy (X). From the text:
(§1) FICI or fractional inhibitory concentration index is the sum of the FICs of each antimicrobial when used in combination. The FIC or fractional inhibitory concentration of an antimicrobial in a combination, is the MIC of the antimicrobial in the combination divided by the MIC of the same antimicrobial when used alone. Minimum inhibitory concentrations are defined in the art as the lowest concentration of an antimicrobial that will inhibit the visible growth of a microorganism after overnight incubation.
(§2) In the method for a 3-mer combination, one antibiotic was “fixed” as part of a backbone whilst the two other antibiotics were varied over a doubling concentration scale beginning at the MIC (×1) for the effective dose in monotherapy against the organism being tested. The ΣFIC was then calculated as shown below. In the method for a 4-mer combination, two antibiotics were “fixed” as part of a backbone whilst the two other antibiotics were varied over a doubling concentration scale beginning at the MIC (×1) for the effective dose in monotherapy against the organism being tested.
(§3) The ΣFIC was divided by “0.5/n” where n=number of antimicrobials in the combination to provide FIC. The inventors opted for this expression because it more closely aligns with the 2-mer synergy levels. The same FIC scale as used for 2-mers was applied: synergy is observed when FIC is <0.5. An “Additive” effect is observed when FIC is 0.5 to <1. Indifference is observed when FIC is 1 to <2. Antagonism is observed when FIC is 2 to 4.
(§4) The antimicrobial agents were sourced from commercially available sources. They were prepared by being weighed and dissolved in water, PBS, DMSO or acidified water to a final concentration from 1-10 mg/mL. Antimicrobial solutions were diluted to 10× highest concentration used in the experiment and subsequently diluted 2× over a series not exceeding 11 serial dilutions. These left the operator with a maximum of 12 different, descending concentrations of the chosen antimicrobials.
(§5) The bacteria were obtained from Ninewells Hospital and Medical School in Dundee, Scotland. They were obtained as patient strains and characterised by Vitek 2 screening. To prepare for the Examples below, the bacteria were grown overnight in Mueller Hinton Cation adjusted broth or until confluent in media with or without supplements. The bacteria were measured for OD600 and readings of <0.25 were returned to the incubator.
(§6) All data herein was produced using the same chequerboard assay.
(§7) 20 μL of antibiotic A (backbone), at a single dilution, was pipetted into all wells of a 96-well plate to be used.
(§8) 20 μL of the lowest concentration of antibiotic B (first variable) was pipetted into column 1 of the 96-well plate. The second concentration (2-fold more concentrate) was pipetted into column 2. This process was repeated until all concentrations of antibiotic B to be used were complete.
(§9) 20 μL of the lowest concentration of antibiotic C (second variable) were pipetted into row A of the 96-well plate. The second concentration (2-fold more concentrate) was pipetted into row B. This process was repeated until all concentrations of antibiotic C to be used were complete.
(§10) 120 μL of sterile media (BHI/MHB2) was added.
(§11) 20 ul of prepared bacterial culture was added.
(§12) Plates were sealed with lids and left to incubate for 16 hours, overnight.
(§13) Plates were read at OD600 in a 96-well plate reader. These are the values reported in the chequerboards below.
(§14) As a tri-mer combination, two antibiotic concentrations were varied while one remained constant, the latter is the “backbone”. For the 4-mer combination, two antibiotic concentrations were varied while two remained constant, the latter is the “backbone”. This method is explained above along with the calculation of the FICI and the indicative value for synergy, indifference and antagonism.
The method was identical to Comparative Example 1, except the isolate was P. aeruginosa.

The next assay relates to A. baumannii. In words: chequerboard assay (percentage of positive control, MIC, FIC) against A. baumannii. Particulars: for concentration up to which the isolate was resistant to the agent / MIC: A. baumannii isolate, agent alone; for MIC: Acinetobacter baumannii, read-out: MIC Monotherapy (X).
From the text: as §1, §2, §3, §4, §5, §6, §7, §8, §9, §10, §11, §12, §13, §14
The method was identical to Comparative Example 1. The isolate was A. baumannii.

The subject of another assay is K. pneumoniae CPE. In words: chequerboard assay (OD600, FIC) against K. pneumoniae CPE. The conditions noted are these: agent alone.
Assay [1] has as its system Methicillin-resistant Staphylococcus aureus (MRSA). In words: chequerboard assay (percentage of positive control, MIC, FIC) against MRSA. The conditions noted are these: for MIC: Staphylococcus aureus, agent alone, MRSA isolate, read-out: MIC Monotherapy (X).
From the text: as §1, §2, §3, §4, §5, §6, §7, §8, §9, §10, §11, §12, §13, §14
The method was identical to Comparative Example 1. The isolate was Methicillin-resistant Staphylococcus aureus (MRSA).

For another assay, the system named is ESBL E. coli. In words: chequerboard assay (OD600, MIC, FIC) against ESBL E. coli. Particulars: for MIC: Escherichia coli, agent alone, ESBL E. coli isolate, read-out: MIC Monotherapy (X).
From the text: as §1, §2, §3, §4, §5, §6, §7, §8, §9, §10, §11, §12, §13, §14

Setting [2] is: agent alone, P. aeruginosa isolate.
[3] abbreviates: agent within AZT + ceftazidime + colistin (Example 17).
Setting [4] is: agent within AZT + fosfomycin + colistin (Example 15).
Where [5] appears, read: agent within AZT + meropenem + colistin + fosfomycin (Example 14).
The mark [6] stands for this setting: agent within zidovudine + meropenem + colistin + ceftazidime (Example 13).
The mark [7] stands for this setting: agent within zidovudine + meropenem + colistin + fosfomycin (Example 14).
Where [8] appears, read: agent within AZT + colistin + ceftazidime (Example 17).
Where [9] appears, read: agent within AZT + ceftazidime + meropenem (Example 16).
The mark [10] stands for this setting: agent within ceftazidime + levofloxacin + fosfomycin (Example 18).
Setting [11] is: agent within ceftazidime + levofloxacin + meropenem (Example 19).
Where [12] appears, read: agent within ceftazidime + AZT + doxycycline (Example 3).
Where [13] appears, read: P. aeruginosa isolate, agent alone.

What is called MIC is the least concentration at which growth counts as inhibited. `CCC(C)CCCC(=O)N[C@@H](CCN)C(=O)N[C@H](C(=O)N[C@@H](CCN)C(=O)N[C@H]1CCNC(=O)[C@H]([C@@H](C)O)NC(=O)[C@H](CCN)NC(=O)[C@H](CCN)NC(=O)[C@H](CC(C)C)NC(=O)[C@@H](CC(C)C)NC(=O)[C@H](CCN)NC1=O)[C@@H](C)O` (stereo partly drawn) (HELM PEPTIDE1{[CCC(C)CCCC(=O)[*:2]].[Dab].T.[Dab].[Dab].[Dab].[dL].L.[Dab].[Dab].T}$PEPTIDE1,PEPTIDE1,5:R3-11:R2$$$V2.0): the MIC in the assay on P. aeruginosa (setting [2]) came out at 512 mg/L; in the assay with A. baumannii, 128 mg/L. Besides, the “MIC combination therapy (Y)” value with P. aeruginosa (setting [3]) is 4 mg/L; with P. aeruginosa (setting [4]), 0.5 mg/L; in the assay with P. aeruginosa (setting [6]), 2 mg/L; in the assay on P. aeruginosa (setting [7]) it was 32 mg/L; in the assay on A. baumannii (setting [8]), 32 mg/L; in the assay with A. baumannii (setting [4]), 0.5 mg/L. Further, the “Ratio Y:X” value with P. aeruginosa (setting [3]) was found to be 0.007813; in the assay with P. aeruginosa (setting [4]), 0.000977; in the assay with P. aeruginosa (agent within AZT + meropenem + colistin + ceftazidime (Example 13)), 0.003906; with P. aeruginosa (setting [5]), 0.0625; in the assay on A. baumannii (setting [8]) it was 0.25; with A. baumannii (setting [4]), 0.003906. The “concentration up to which the isolate was resistant to the agent” value (“concentration up” for short) in the assay with A. baumannii was found to be 64 mg/L. For the same molecule, the “concentration at which the isolate was resistant to the agent” value in the assay with K. pneumoniae CPE is listed as ≥ 8 mg/L.

Take `CC(C)(O/N=C(\C(=O)N[C@@H]1C(=O)N2C(C(=O)[O-])=C(C[n+]3ccccc3)CS[C@H]12)c1csc(N)n1)C(=O)O` [Ceftazidime]: the MIC in the assay on P. aeruginosa (setting [2]) and with A. baumannii was 512 mg/L in each case. Besides, the “MIC combination therapy (Y)” value with P. aeruginosa (setting [3]) was found to be 1 mg/L; with P. aeruginosa (setting [9]), 0.5 mg/L; in the assay on P. aeruginosa (setting [6]), 1 mg/L; with A. baumannii (setting [8]), 32 mg/L; in assay [1] (setting [10]), 16 mg/L; in assay [1] (setting [11]), 1 mg/L. For the same molecule, the “MIC combination therapy (Y)” value in the assay on ESBL E. coli (setting [12]) is recorded as 4 mg/L. Besides, the “concentration at which the isolate was resistant to the agent” value with K. pneumoniae CPE came to 4 mg/L.

As for `C[C@H]1c2cccc(O)c2C(=O)C2=C(O)[C@]3(O)C(=O)C(C(N)=O)=C(O)[C@@H](N(C)C)[C@@H]3[C@@H](O)[C@@H]21` [Doxycycline], in the assay with ESBL E. coli, the MIC turned out to be 1 mg/L. Besides, in the assay on ESBL E. coli (setting [12]), the “MIC combination therapy (Y)” value was determined as 0.5 mg/L.

For `C[C@@H]1O[C@@H]1P(=O)(O)O` [Fosfomycin], the “concentration up” value with P. aeruginosa (setting [13]) came to 64 mg/L; in the assay on A. baumannii it was 128 mg/L. Besides, the MIC was found to be 256 mg/L with P. aeruginosa (setting [2]), 256 mg/L in the assay on A. baumannii and 16 mg/L in assay [1]. Also, the “MIC Monotherapy (X)” value in the assay on P. aeruginosa (setting [2]) is recorded as 128 mg/L. In addition, the “MIC combination therapy (Y)” value was determined as 16 mg/L in the assay on P. aeruginosa (setting [4]), 4 mg/L in the assay on P. aeruginosa (setting [7]), 32 mg/L in the assay with A. baumannii (setting [4]) and 2 mg/L in assay [1] (setting [10]). The “Ratio Y:X” value in the assay on P. aeruginosa (setting [4]) is 0.125; with P. aeruginosa (setting [5]), 0.01562; in the assay on A. baumannii (setting [4]), 0.125; in assay [1] (setting [10]) it was 0.125.

Turning to `C[C@H]1COc2c(N3CCN(C)CC3)c(F)cc3c(=O)c(C(=O)O)cn1c23` [Levo, Levofloxacin], the MIC in assay [1] turned out to be 1 mg/L. Further, in assay [1] (setting [10]), the “MIC combination therapy (Y)” value is 0.125 mg/L and the “Ratio Y:X” value worked out at 0.125. Besides, in assay [1] (setting [11]), the “MIC combination therapy (Y)” value came to 0.25 mg/L and the “Ratio Y:X” value is 0.25.

Take `C[C@@H](O)[C@H]1C(=O)N2C(C(=O)O)=C(S[C@@H]3CN[C@H](C(=O)N(C)C)C3)[C@H](C)[C@H]12` [Meropenem]: the “concentration up” value in the assay with P. aeruginosa (setting [13]) is recorded as 64 mg/L. Further, the MIC (in the assay on P. aeruginosa (setting [2]); in assay [1]) was 32 mg/L in each case. In addition, the “MIC combination therapy (Y)” value was 4 mg/L with P. aeruginosa (setting [9]), 2 mg/L in the assay with P. aeruginosa (setting [6]), 4 mg/L in the assay on P. aeruginosa (setting [7]) and 4 mg/L in assay [1] (setting [11]).

`Cc1cn([C@H]2C[C@H](N=[N+]=[N-])[C@@H](CO)O2)c(=O)[nH]c1=O` [Zidovudine, 1-[(2R, 4S, 5S)-4-Azido-5-(hydroxymethyl)oxolan-2-yl]-5-methylpyrimidine-2,4-dione]: the minimum inhibitory concentration (MIC) was 512 mg/L in the assay with P. aeruginosa (setting [2]), 512 mg/L in the assay on A. baumannii and 1 mg/L with ESBL E. coli. The “MIC combination therapy (Y)” value was found to be 2 mg/L in the assay on P. aeruginosa (setting [3]); 8 mg/L with P. aeruginosa (setting [9]); 0.5 mg/L with P. aeruginosa (setting [4]); 1 mg/L in the assay with P. aeruginosa (setting [6]); 1 mg/L with P. aeruginosa (setting [7]); 4 mg/L in the assay with A. baumannii (setting [8]). The “MIC combination therapy (Y)” value in the assay on A. baumannii (setting [4]) was determined as 0.5 mg/L; in the assay on ESBL E. coli (setting [12]) it was 0.125 mg/L. The “Ratio Y:X” value with P. aeruginosa (setting [3]) was determined as 0.003906; with P. aeruginosa (setting [9]) it was 0.01562; in the assay with P. aeruginosa (setting [4]) it was 0.000977; with P. aeruginosa (setting [6]), 0.001953; in the assay on P. aeruginosa (setting [7]), 0.001953; in the assay on A. baumannii (setting [8]) it was 0.007813. The “Ratio Y:X” value with A. baumannii (setting [4]) is 0.000977; in the assay on ESBL E. coli (setting [12]), 0.125.
